Columns and labels:
[1] = target: T1, human recombinant histamine H1 receptor (Homo sapiens, UniProt P35367); assay: Histamine H1 radioligand binding ([3H]Pyrilamine); conditions: compound at 1 μM; read-out: Histamine Binding (1 μM) H1, percent inhibition of specific binding
T1 construct: expressed in transfected cells; host or cells: CHO cells
Method in brief: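 Membranes from CHO cells expressing the receptor were incubated with compound and 1.2 nM [3H]pyrilamine for 180 min at 25 °C in 50 mM Tris-HCl pH 7.4 with MgCl2, NaCl and sucrose; 1 μM pyrilamine defined non-specific binding. Filter-bound radioactivity was counted.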

[2] = target: T2, human recombinant histamine H2 receptor (Homo sapiens, UniProt P25021); assay: Histamine H2 radioligand binding ([125I]Aminopotentidine); conditions: compound at 1 μM; read-out: Histamine Binding (1 μM) H2, percent inhibition of specific binding
T2 construct: expressed in transfected cells; host or cells: CHO-K1 cells
T2 sequence (P25021 whole entry): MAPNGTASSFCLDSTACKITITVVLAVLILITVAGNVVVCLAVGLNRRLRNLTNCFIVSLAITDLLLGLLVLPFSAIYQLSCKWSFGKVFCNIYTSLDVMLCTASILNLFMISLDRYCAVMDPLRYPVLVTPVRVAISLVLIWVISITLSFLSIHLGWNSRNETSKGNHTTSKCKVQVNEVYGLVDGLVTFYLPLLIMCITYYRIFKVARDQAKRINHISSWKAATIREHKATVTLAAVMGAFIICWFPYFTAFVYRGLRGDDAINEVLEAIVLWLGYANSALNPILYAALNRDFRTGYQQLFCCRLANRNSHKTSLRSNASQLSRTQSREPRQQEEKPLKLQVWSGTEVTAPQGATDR
Method in brief: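 Membranes from CHO-K1 cells expressing recombinant human H2 receptor, in 50 mM phosphate buffer pH 7.4, incubated with 0.1 nM [125I]aminopotentidine for 120 min at 25 °C; nonspecific binding defined with 3 μM tiotidine.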

[3] = target: T3, human recombinant dopamine D2L receptor (Homo sapiens, UniProt P14416); assay: Dopamine D2L radioligand binding ([3H]Spiperone); conditions: compound at 1 μM; read-out: Dopamine (1 μM) D2L, percent inhibition of specific binding
T3 construct: expressed in transfected cells; host or cells: CHO cells
T3 sequence (P14416 whole entry): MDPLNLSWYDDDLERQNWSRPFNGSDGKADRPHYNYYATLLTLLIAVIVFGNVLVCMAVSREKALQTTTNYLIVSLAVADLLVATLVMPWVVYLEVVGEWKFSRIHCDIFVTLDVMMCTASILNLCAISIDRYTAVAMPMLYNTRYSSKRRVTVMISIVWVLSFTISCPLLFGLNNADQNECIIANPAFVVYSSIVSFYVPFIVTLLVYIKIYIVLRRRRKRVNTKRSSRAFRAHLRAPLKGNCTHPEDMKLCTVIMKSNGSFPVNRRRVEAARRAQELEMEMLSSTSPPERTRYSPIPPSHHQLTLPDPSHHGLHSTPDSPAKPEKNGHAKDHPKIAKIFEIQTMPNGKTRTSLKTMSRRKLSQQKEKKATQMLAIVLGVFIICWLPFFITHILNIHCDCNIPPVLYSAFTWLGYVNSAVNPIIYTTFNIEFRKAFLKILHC
Method in brief: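 Binding measured by filtration and counting, reported as % inhibition of specific [3H]spiperone binding (0.16 nM tracer; 10 μM haloperidol for nonspecific). Compounds tested at ≤1 μM in 1% DMSO for 120 min at 25° C against CHO-expressed human D2L in pH 7.4 Tris-HCl buffer.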

[4] = target: T4, human recombinant serotonin (5-Hydroxytryptamine) 5-HT2A receptor (Homo sapiens, UniProt P28223); assay: Serotonin 5-HT2A radioligand binding ([3H]Ketanserin); conditions: compound at 1 μM; read-out: Serotonin (1 μM) 5-HT2A, percent inhibition of specific binding
T4 construct: expressed in transfected cells; host or cells: CHO-K1 cells
T4 sequence (P28223 whole entry): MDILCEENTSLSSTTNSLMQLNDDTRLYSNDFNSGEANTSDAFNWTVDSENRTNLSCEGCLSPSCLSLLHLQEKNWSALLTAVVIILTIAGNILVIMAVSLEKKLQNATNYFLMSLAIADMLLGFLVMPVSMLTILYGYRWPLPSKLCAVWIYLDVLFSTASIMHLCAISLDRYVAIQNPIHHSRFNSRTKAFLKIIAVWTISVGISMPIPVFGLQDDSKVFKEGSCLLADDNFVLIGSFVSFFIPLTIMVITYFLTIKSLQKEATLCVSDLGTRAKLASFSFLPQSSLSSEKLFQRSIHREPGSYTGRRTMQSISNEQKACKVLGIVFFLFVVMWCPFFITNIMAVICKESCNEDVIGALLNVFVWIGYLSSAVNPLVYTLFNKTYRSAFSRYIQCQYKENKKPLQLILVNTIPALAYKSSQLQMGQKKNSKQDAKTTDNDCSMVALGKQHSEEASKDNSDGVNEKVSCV
Method in brief: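 Percent inhibition of specific [3H]ketanserin (0.5 nM) binding, filtration read-out, with compounds at ≤1 μM (1% DMSO vehicle). Receptor source: recombinant human 5-HT2A in CHO-K1 cells, 50 mM Tris-HCl pH 7.4, 60 min, 25 °C; 1 μM mianserin gives nonspecific binding.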

[5] = target: T5, human recombinant serotonin (5-Hydroxytryptamine) 5-HT6 receptor (Homo sapiens, UniProt P50406); assay: Serotonin 5-HT6 radioligand binding ([3H]LSD); conditions: compound at 1 μM; read-out: Serotonin (1 μM) 5-HT6, percent inhibition of specific binding
T5 construct: expressed in transfected cells; host or cells: human HeLa cells
T5 sequence (P50406 whole entry): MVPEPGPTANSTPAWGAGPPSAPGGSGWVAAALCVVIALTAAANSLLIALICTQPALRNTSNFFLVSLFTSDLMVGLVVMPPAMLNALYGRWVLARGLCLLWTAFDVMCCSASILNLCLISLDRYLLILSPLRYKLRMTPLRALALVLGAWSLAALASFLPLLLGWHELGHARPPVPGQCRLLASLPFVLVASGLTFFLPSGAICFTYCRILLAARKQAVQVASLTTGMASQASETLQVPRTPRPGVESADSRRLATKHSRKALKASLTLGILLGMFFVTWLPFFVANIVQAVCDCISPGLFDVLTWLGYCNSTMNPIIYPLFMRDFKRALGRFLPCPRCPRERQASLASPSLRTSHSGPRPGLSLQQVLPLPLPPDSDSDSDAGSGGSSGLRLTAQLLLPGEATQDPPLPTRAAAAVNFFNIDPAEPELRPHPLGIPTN
Method in brief: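 Human recombinant 5-HT6 receptor from HeLa cells incubated with 1.5 nM [3H]LSD for 120 min at 37° C in 50 mM Tris-HCl pH 7.4, 150 mM NaCl, 2 mM ascorbic acid, 0.001% BSA. Nonspecific binding defined with 5 μM serotonin; bound ligand counted after filtration.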

T1 sequence (P35367 whole entry): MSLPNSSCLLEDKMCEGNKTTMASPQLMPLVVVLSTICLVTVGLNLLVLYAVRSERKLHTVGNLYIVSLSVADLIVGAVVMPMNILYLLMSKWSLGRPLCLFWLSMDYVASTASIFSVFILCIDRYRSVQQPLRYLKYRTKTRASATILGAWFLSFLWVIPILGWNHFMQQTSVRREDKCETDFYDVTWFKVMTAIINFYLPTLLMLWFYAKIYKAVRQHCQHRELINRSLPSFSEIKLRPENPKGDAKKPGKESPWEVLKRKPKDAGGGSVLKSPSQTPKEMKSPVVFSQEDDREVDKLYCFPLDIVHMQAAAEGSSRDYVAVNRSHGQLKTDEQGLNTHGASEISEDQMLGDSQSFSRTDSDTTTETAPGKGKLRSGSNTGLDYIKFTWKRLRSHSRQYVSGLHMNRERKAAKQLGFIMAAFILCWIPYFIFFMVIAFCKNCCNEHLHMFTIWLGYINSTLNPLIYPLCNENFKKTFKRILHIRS

Compound | inhibition at 1 µM [1] [%] | inhibition at 1 µM [2] [%] | inhibition at 1 µM [3] [%] | inhibition at 1 µM [4] [%] | inhibition at 1 µM [5] [%]
CN1CCc2c(n(CCc3ccc(C(F)(F)F)nc3)c3ccc(Cl)cc23)CC1 [Compound No. 1, 9-chloro-6-(2-(6-(trifluoromethyl)pyridin-3-yl)ethyl)-1,2,3,4,5,6-hexahydro-3-methylazepino[4,5-b]indole] | 96 | 58 | 23 | 98 | 86
C/C(=C\n1c2c(c3cc(Cl)ccc31)CCN(C)CC2)c1ccc(F)cc1 [Compound No. 2, 9-chloro-6-((E)-2-(4-fluorophenyl)prop-1-enyl)-1,2,3,4,5,6-hexahydro-3-methylazepino[4,5-b]indole] | 93 | 105 | 97 | 99 | 103
Cc1cncc(CCn2c3c(c4cc(Cl)ccc42)CCN(C)CC3)c1 [Compound No. 3, 9-chloro-3-methyl-6-(2-(5-methylpyridin-3-yl)ethyl)-1,2,3,4,5,6-hexahydroazepino[4,5-b]indole] | 102 | 82 | 27 | 95 | 92
CC1CCN(C(=O)Cn2c3c(c4cc(Cl)ccc42)CCN(C)CC3)CC1 [Compound No. 76, 2-(9-chloro-2,3,4,5-tetrahydro-3-methylazepino[4,5-b]indol-6(1H)-yl)-1-(4-methylpiperidin-1-yl)ethanone] | 95 | 19 | 0 | 52 | 39
COc1ccc(C(O)Cn2c3c(c4cc(Cl)ccc42)CCN(C)CC3)cc1OC (stereo not drawn) [Compound No. 77, 2-(9-chloro-2,3,4,5-tetrahydro-3-methylazepino[4,5-b]indol-6(1H)-yl)-1-(3,4-dimethoxyphenyl)ethanol] | 97 | 37 | 16 | 90 | 33
COc1ccc(/C=C/n2c3c(c4cc(Cl)ccc42)CCN(C)CC3)cc1 [Compound No. 78, 6-(4-methoxystyryl)-9-chloro-1,2,3,4,5,6-hexahydro-3-methylazepino[4,5-b]indole] | 100 | 91 | 58 | 100 | 91
Cc1ccc2c(c1)c1c(n2CC(=O)Nc2ccccc2)CCN(C)CC1 [Compound No. 79, 2-(2,3,4,5-tetrahydro-3,9-dimethylazepino[4,5-b]indol-6(1H)-yl)-N-phenylacetamide] | 6 | 0 | -7 | -8 | -7
C=C(Cn1c2c(c3cc(Cl)ccc31)CCN(C)CC2)c1ccc(F)cc1 [Compound No. 82, 9-chloro-6-(2-(4-fluorophenyl)allyl)-3-methyl-1,2,3,4,5,6-hexahydroazepino[4,5-b]indole] | 103 | 95 | 90 | 98 | 104
CN1CCc2c(n(/C=C/c3ccccc3F)c3ccc(Cl)cc23)CC1 [Compound No. 83, (E)-9-chloro-6-(2-fluorostyryl)-3-methyl-1,2,3,4,5,6-hexahydro azepino[4,5-b]indole] | 97 | 98 | 61 | 99 | 103
C/C(=C/n1c2c(c3cc(Cl)ccc31)CCN(C)CC2)c1ccc(Cl)cc1Cl [Compound No. 152, (Z)-9-chloro-6-(2-(2,4-dichlorophenyl)prop-1-enyl)-1,2,3,4,5,6-hexahydro-3-methylazepino[4,5-b]indole] | 91 | 86 | 3 | 100 | 73
COc1ccc(/C=C/n2c3c(c4cc(Cl)ccc42)CCN(C)CC3)cc1F [Compound No. 158, (E)-6-(3-fluoro-4-methoxystyryl)-9-chloro-1,2,3,4,5,6-hexahydro-3-methylazepino[4,5-b]indole] | 98 | 89 | 65 | 101 | 93
C/C(=C/n1c2c(c3cc(C)ccc31)CCN(C)CC2)c1ccc(Cl)cc1Cl [Compound No. 174, (Z)-6-(2-(2,4-dichlorophenyl)prop-1-enyl)-1,2,3,4,5,6-hexahydro-3,9-dimethylazepino[4,5-b]indole] | 98 | 99 | 34 | 102 | 100
COc1ccc(/C=C/n2c3c(c4cc(C)ccc42)CCN(C)CC3)cc1F [Compound No. 180, (E)-6-(3-fluoro-4-methoxystyryl)-1,2,3,4,5,6-hexahydro-3,9-dimethylazepino[4,5-b]indole] | 97 | 77 | 62 | 101 | 95
Cc1ccc2c(c1)c1c(n2CC(=O)N2CCNCC2)CCN(C)CC1 [Compound No. 224, 2-(3,9-dimethyl-2,3,4,5-tetrahydroazepino[4,5-b]indol-6(1H)-yl)-1-(piperazin-1-yl)ethanone] | 33 | -4 | -2 | -7 | -4
Cc1ccc2c(c1)c1c(n2CC(=O)N2CCC(C)CC2)CCN(C)CC1 [Compound No. 225, 2-(3,9-dimethyl-2,3,4,5-tetrahydroazepino[4,5-b]indol-6(1H)-yl)-1-(4-methylpiperidin-1-yl)ethanone] | 95 | 6 | 3 | 38 | 16
COc1ccc(/C=C/n2c3c(c4cc(Cl)ccc42)CCN(C)CC3)cc1OC [Compound No. 226, (E)-9-chloro-6-(3,4-dimethoxystyryl)-3-methyl-1,2,3,4,5,6-hexahydroazepino[4,5-b]indole] | 99 | 39 | 37 | 92 | 36
COc1ccc(C(O)Cn2c3c(c4cc(C)ccc42)CCN(C)CC3)cc1OC (stereo not drawn) [Compound No. 227, 1-(3,4-dimethoxyphenyl)-2-(3,9-dimethyl-2,3,4,5-tetrahydroazepino[4,5-b]indol-6(1H)-yl)ethanol] | 95 | 19 | 5 | 85 | 30
CN1CCc2c(n(/C=C/c3ccccc3)c3ccc(Cl)cc23)CC1 [Compound No. 228, (E)-9-chloro-3-methyl-6-styryl-1,2,3,4,5,6-hexahydroazepino[4,5-b]indole] | 99 | 97 | 73 | 99 | 104

From patent publication US9481676B2, “Azepino[4,5-B]indoles and methods of use” (Medivation Technologies, Inc., priority 2008, dated 2016)
